The text below walks through data of patent US20230023009A1, “HETEROCYCLIC COMPOUNDS AND METHODS OF USE THEREOF” (SPARCBIO LLC, priority 2020, published 2023).

SMILES strings stand for the structures. Some results are limits rather than exact numbers.

Chain of KRAS G12C protein (P01116 1-188 isoform P01116-2 G12C): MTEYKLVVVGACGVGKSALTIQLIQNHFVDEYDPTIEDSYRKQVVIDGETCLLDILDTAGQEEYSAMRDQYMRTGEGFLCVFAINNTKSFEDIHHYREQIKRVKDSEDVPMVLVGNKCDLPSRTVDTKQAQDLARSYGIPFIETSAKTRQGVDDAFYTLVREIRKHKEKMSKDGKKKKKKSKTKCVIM

In this experiment the target is KRAS G12C protein (Homo sapiens, UniProt P01116, G12C). The experiment can be described thus: Nucleotide exchange assay (Method III, KRAS G12C/Raf-RBD TR-FRET). The experiment is classed as biochemical. The settings on record: SOS1-mediated exchange of GDP for GTP, 18 hr compound incubation. The protocol:
Method III. Inhibition of SOS1-mediated exchange of GDP for GTP on the KRAS G12C protein was measured in a biochemical assay that monitors association of KRAS G12C protein with the Ras-binding domain of Raf (Raf-RBD), where the association is coupled to exchange of GDP to GTP on the KRAS G12C protein. The assay was performed at WuXi AppTec (Shanghai, China). Compounds were serially diluted in 3-fold dilutions to 11 concentrations and spotted into the wells of an assay plate in a total volume of 150 nL DMSO per well. A 2× enzyme mix was prepared by diluting GDP-bound, His-tagged KRAS G12C to 25 nM in assay buffer. 10 μL/well of 2× enzyme mix was added to all wells, and the plate was sealed and incubated overnight (18 hr) at 23° C. 4×SOS1/GDP and 4×SOS1/GTP were prepared in assay buffer. 5 μL/well of 4×SOS1/GDP mix was added to negative control wells, 5 μL/well of 4×SOS1/GTP mix was added to the remaining wells, and the plate was further incubated at 23° C. for 1 hr. Finally, FLAG-tagged Raf-RBD is added to the reaction mixture along with a pair of FRET donor- and acceptor-conjugated antibodies specific for the FLAG-tagged Raf-RBD and His-tagged KRAS G12C proteins. A 4×Raf-RBD/Tb-anti-FLAG/D2-anti-His mix was prepared in assay buffer, and 5 μL/well of the mix was added to all wells, followed by incubation at room temperature for 2 hr. The TR-FRET signals, which increase with association of KRAS G12C and Raf-RBD, were measured on a Perkin Elmer Envision 2104 plate reader, and data were analyzed by non-linear regression to obtain IC50 values for inhibition by compounds. Table 2 includes results of the assay of Method III. ‘+++’ indicates IC50 values≤300 nM, ‘++’ indicates IC50 values between 300 nM-3 μM, and ‘+’ indicates IC50 values≥3 μM.
In general terms: TR-FRET usually uses a lanthanide donor and a delayed reading to cut background.
In turn, `C=CC(=O)N1CCN(c2nc(OC[C@@H]3CCCN3C)nc3c2COC(c2cccc4cccc(Cl)c24)C3)C[C@@H]1CC#N` (single isomer, unassigned) [38 (Isomer A)] gave an IC50 of 0.3 to 3 µM. Turning to `C=C(F)C(=O)N1CCN(c2nc(OC[C@@H]3CCCN3C)nc3c2COC(c2cccc4cccc(Cl)c24)C3)C[C@H]1C` (single isomer, unassigned) [42 (Isomer A)], the IC50 is at least 3 µM. `C=C(F)C(=O)N1CCN(c2nc(OC[C@@H]3CCCN3C)nc3c2COC(c2cccc4cccc(Cl)c24)C3)C[C@H]1C` (single isomer, unassigned) [42 (Isomer B)] had an IC50 of at least 3 µM. The same measure for `C=C(F)C(=O)N1CCN(c2nc(OC[C@@H]3CCCN3C)nc3c2COC(c2cccc4cccc(Cl)c24)C3)[C@@H](C)C1` (single isomer, unassigned) [44 (Isomer A)]: at least 3 µM. The same measure for `C=C(F)C(=O)N1CCN(c2nc(OC[C@@H]3CCCN3C)nc3c2COC(c2cccc4cccc(Cl)c24)C3)[C@@H](C)C1` (single isomer, unassigned) [44 (Isomer B)]: 0.3 to 3 µM; for `C=C(F)C(=O)N1CCN(c2nc(OC[C@@H]3CCCN3C)nc3c2COC(c2c(C)ccc4[nH]ncc24)C3)C[C@@H]1CC#N` (single isomer, unassigned) [52 (Isomer A)]: 0.3 to 3 µM; for `C=C(F)C(=O)N1CCN(c2nc(OC[C@@H]3CCCN3C)nc3c2OCC(c2cccc4cccc(Cl)c24)O3)C[C@@H]1CC#N` (single isomer, unassigned) [64 (Isomer A)]: 0.3 to 3 µM. For `C=C(F)C(=O)N1CCN(c2nc(OC[C@@H]3CCCN3C)nc3c2OCC(c2cccc4cccc(Cl)c24)O3)C[C@@H]1CC#N` (single isomer, unassigned) [64 (Isomer B)] the value was 0.3 to 3 µM; for `C=CC(=O)N1CCN(c2nc(OC[C@@H]3CCCN3C)nc3c2OCC(c2cccc4cccc(Cl)c24)O3)CC1` (single isomer, unassigned) [135 (Isomer A)], at least 3 µM. The compound `C=CC(=O)N1CCN(c2nc(OC[C@@H]3CCCN3C)nc3c2OCC(c2cccc4cccc(Cl)c24)O3)CC1` (single isomer, unassigned) [135 (Isomer B)] gave a 50% inhibitory concentration (IC50) of at least 3 µM. Compound `C=C(F)C(=O)N1CCN(c2nc(OC[C@@H]3CCCN3C)nc3c2OCC(c2cccc4cccc(Cl)c24)O3)[C@@H](C)C1` (single isomer, unassigned) [136 (Isomer A)] registered an IC50 of at least 3 µM.

In turn, `C=C(F)C(=O)N1CCN(c2nc(OC[C@@H]3CCCN3C)nc3c2OCC(c2cccc4cccc(Cl)c24)O3)[C@@H](C)C1` (single isomer, unassigned) [136 (Isomer B)] showed an IC50 of at least 3 µM. For the compound `C=C(F)C(=O)N1CCN(c2nc(N3CC(N(CC)CC)C3)nc3c2COC(c2cccc4cccc(Cl)c24)C3)C[C@@H]1CC#N` (single isomer, unassigned) [229 (Isomer B)], the IC50 is at least 3 µM.

In the case of `C=C(F)C(=O)N1CCN(c2nc(N3CCC(N(CC)CC)CC3)nc3c2COC(c2cccc4cccc(Cl)c24)C3)C[C@@H]1CC#N` (single isomer, unassigned) [230 (Isomer A)], the IC50 is at least 3 µM. The same measure for `C=C(F)C(=O)N1CCN(c2nc(N3CCC(N(CC)CC)CC3)nc3c2COC(c2cccc4cccc(Cl)c24)C3)C[C@@H]1CC#N` (single isomer, unassigned) [230 (Isomer B)]: 0.3 to 3 µM. With `C=C(F)C(=O)N1CCN(c2nc(NC3CCN(S(C)(=O)=O)CC3)nc3c2COC(c2cccc4cccc(Cl)c24)C3)C[C@@H]1CC#N` (single isomer, unassigned) [231 (Isomer A)], the IC50 is at least 3 µM. For `C=C(F)C(=O)N1CCN(c2nc(NC3CCN(S(C)(=O)=O)CC3)nc3c2COC(c2cccc4cccc(Cl)c24)C3)C[C@@H]1CC#N` (single isomer, unassigned) [231 (Isomer B)] the value was at least 3 µM; for `C=C(F)C(=O)N1CCN(c2nc(NCCC(=O)N(C)C)nc3c2COC(c2cccc4cccc(Cl)c24)C3)C[C@@H]1CC#N` (single isomer, unassigned) [232 (Isomer A)], 0.3 to 3 µM; for `C=C(F)C(=O)N1CCN(c2nc(NCCC(=O)N(C)C)nc3c2COC(c2cccc4cccc(Cl)c24)C3)C[C@@H]1CC#N` (single isomer, unassigned) [232 (Isomer B)], at least 3 µM. For `C=C(F)C(=O)N1CCN(c2nc(Nc3cnn(C)c3)nc3c2COC(c2cccc4cccc(Cl)c24)C3)C[C@@H]1CC#N` (single isomer, unassigned) [233 (Isomer A)], the IC50 is at least 3 µM. The compound `C=C(F)C(=O)N1CCN(c2nc(Nc3cnn(C)c3)nc3c2COC(c2cccc4cccc(Cl)c24)C3)C[C@@H]1CC#N` (single isomer, unassigned) [233 (Isomer B)] returned an IC50 of at least 3 µM. `C=C(F)C(=O)N1CCN(c2nc(OC3CCN(C)CC3)nc3c2COC(c2cccc4cccc(Cl)c24)C3)C[C@@H]1CC#N` (single isomer, unassigned) [234 (Isomer A)] showed an IC50 of at least 3 µM. The compound `C=C(F)C(=O)N1CCN(c2nc(OC3CCN(C)CC3)nc3c2COC(c2cccc4cccc(Cl)c24)C3)C[C@@H]1CC#N` (single isomer, unassigned) [234 (Isomer B)] showed an IC50 of 0.3 to 3 µM.

On to `C=C(F)C(=O)N1C[C@H](C)N(c2nc(OC[C@@H]3CCCN3C)nc3c2COC(c2cccc4cccc(Cl)c24)C3)C[C@H]1C` (single isomer, unassigned) [235 (Isomer A)], for which the IC50 was at least 3 µM. `C=C(F)C(=O)N1C[C@H](C)N(c2nc(OC[C@@H]3CCCN3C)nc3c2COC(c2cccc4cccc(Cl)c24)C3)C[C@H]1C` (single isomer, unassigned) [235 (Isomer B)] showed an IC50 of at least 3 µM. Turning to `C=C(F)C(=O)N1[C@H](C)CN(c2nc(OC[C@@H]3CCCN3C)nc3c2COC(c2cccc4cccc(Cl)c24)C3)C[C@@H]1C` (single isomer, unassigned) [237 (Isomer A)], the 50% inhibitory concentration (IC50) was at least 3 µM. The same measure for `C=C(F)C(=O)N1[C@H](C)CN(c2nc(OC[C@@H]3CCCN3C)nc3c2COC(c2cccc4cccc(Cl)c24)C3)C[C@@H]1C` (single isomer, unassigned) [237 (Isomer B)]: at least 3 µM. Turning to `C=C(F)C(=O)N1CCN(c2nc(OC[C@@H]3CCCN3C)nc3c2COC(c2cccc4cccc(Cl)c24)C3)CC1(C)C` (single isomer, unassigned) [238 (Isomer A)], the IC50 was at least 3 µM. The same measure for `C=C(F)C(=O)N1CCN(c2nc(OC[C@@H]3CCCN3C)nc3c2COC(c2cccc4cccc(Cl)c24)C3)CC1(C)C` (single isomer, unassigned) [238 (Isomer B)]: at least 3 µM; for `C=C(Cl)C(=O)N1CCN(c2nc(OC[C@@H]3CCCN3C)nc3c2COC(c2cccc4cccc(Cl)c24)C3)C[C@@H]1CC#N` (single isomer, unassigned) [239 (Isomer A)]: at least 3 µM. For `C=C(C)C(=O)N1CCN(c2nc(OC[C@@H]3CCCN3C)nc3c2COC(c2cccc4cccc(Cl)c24)C3)C[C@@H]1CC#N` (single isomer, unassigned) [240 (Isomer A)] the value was at least 3 µM; for `C=C(C)C(=O)N1CCN(c2nc(OC[C@@H]3CCCN3C)nc3c2COC(c2cccc4cccc(Cl)c24)C3)C[C@@H]1CC#N` (single isomer, unassigned) [240 (Isomer B)], at least 3 µM; for `C/C=C/C(=O)N1CCN(c2nc(OC[C@@H]3CCCN3C)nc3c2COC(c2cccc4cccc(Cl)c24)C3)C[C@@H]1CC#N` (single isomer, unassigned) [241 (Isomer B)], 0.3 to 3 µM. The same measure for `CN(C)C/C=C/C(=O)N1CCN(c2nc(OC[C@@H]3CCCN3C)nc3c2COC(c2cccc4cccc(Cl)c24)C3)C[C@@H]1CC#N` (single isomer, unassigned) [242 (Isomer A)]: at least 3 µM; for `CN(C)C/C=C/C(=O)N1CCN(c2nc(OC[C@@H]3CCCN3C)nc3c2COC(c2cccc4cccc(Cl)c24)C3)C[C@@H]1CC#N` (single isomer, unassigned) [242 (Isomer B)]: at most 0.3 µM; for `CC#CC(=O)N1CCN(c2nc(OC[C@@H]3CCCN3C)nc3c2COC(c2cccc4cccc(Cl)c24)C3)C[C@@H]1CC#N` (single isomer, unassigned) [243 (Isomer A)]: at least 3 µM.

For `C=C(F)C(=O)N1CCN(c2nc(Oc3cccc4c3CN(C)CC4)nc3c2COC(c2cccc4cccc(Cl)c24)C3)C[C@@H]1CC#N` (single isomer, unassigned) [249 (Isomer A)], the IC50 is 0.3 to 3 µM.

On to `C=C(F)C(=O)N1CCN(c2nc(Oc3cccc4c3CN(C)CC4)nc3c2COC(c2cccc4cccc(Cl)c24)C3)C[C@@H]1CC#N` (single isomer, unassigned) [249 (Isomer B)], for which the IC50 was at least 3 µM. `C=C(F)C(=O)N1CCN(c2nc(Oc3cccc4c3CCN(C)C4)nc3c2COC(c2cccc4cccc(Cl)c24)C3)C[C@@H]1CC#N` (single isomer, unassigned) [250 (Isomer A)] came in with an IC50 of 0.3 to 3 µM.

By IC50 is commonly meant the concentration at which inhibition is half-maximal. A higher IC50 goes with a need for much substance.
